Measured values from PubChem BioAssay (NCI).
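Growth conditions: 96-well plates. Treatment: test compound, 48 hours, 5 concentrations. Analysis: linear interpolation between bracketing concentrations; unreached endpoints set to highest concentration. At the GI50, growth is halved. Definition used: TGI = concentration required for complete inhibition of growth.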

Legend:
Assay in all cases: NCI tumour cell line growth inhibition, 48 h
A498 renal = tested on: A498 renal
ACHN renal = tested on: ACHN renal
HCT-15 colon = tested on: HCT-15 colon
KM12 colon = tested on: KM12 colon
PC-3 prostate = tested on: PC-3 prostate
SK-MEL-5 melanoma = tested on: SK-MEL-5 melanoma
SR leukemia = tested on: SR leukemia
SW-620 colon = tested on: SW-620 colon
UACC-257 melanoma = tested on: UACC-257 melanoma
DU-145 prostate = tested on: DU-145 prostate

Compound | TGI (A498 renal) [µM] | TGI (ACHN renal) [µM] | TGI (HCT-15 colon) [µM] | TGI (KM12 colon) [µM] | TGI (PC-3 prostate) [nM] | TGI (SK-MEL-5 melanoma) [µM] | TGI (SR leukemia) [µM] | TGI (SW-620 colon) [µM] | TGI (UACC-257 melanoma) [µM] | TGI (DU-145 prostate) [µM] | GI50 (A498 renal) [nM] | GI50 (ACHN renal) [nM] | GI50 (DU-145 prostate) [nM] | GI50 (HCT-15 colon) [nM] | GI50 (KM12 colon) [nM] | GI50 (PC-3 prostate) [nM] | GI50 (SK-MEL-5 melanoma) [nM] | GI50 (SW-620 colon) [nM] | GI50 (UACC-257 melanoma) [nM]
COC(=O)C(=O)C(C(=O)C(=O)Nc1ccccc1OC)c1nc2ccc([N+](=O)[O-])cc2[nH]c1=O (stereo not given) | > 100 | > 100 | > 100 | > 100 | > 100000 | > 100 | > 100 | > 100 | > 100 | – | – | – | – | – | – | – | – | – | –
CCn1c2c(c3ccccc31)[C@@H](c1ccc(Cl)cc1)CC1C(=O)N(c3ccccc3)C(=O)C21 (stereo not given in full) | > 100 | > 100 | > 100 | > 100 | – | > 100 | 98.8 | > 100 | > 100 | – | – | – | – | – | – | – | – | – | –
CC(=O)NNc1nc(C)c(C(=O)/C=C/c2ccc(Cl)cc2)s1 | > 100 | > 100 | – | > 100 | – | > 100 | – | > 100 | > 100 | – | – | – | – | – | – | – | – | – | –
Cc1nc(N)nc(N)c1CCCc1ccccc1 | – | > 100 | > 100 | > 100 | – | > 100 | > 100 | > 100 | > 100 | – | – | – | – | – | – | – | – | – | –
Cc1ccc(S(=O)(=O)OC(COC(=O)c2ccccc2)C(OS(=O)(=O)c2ccc(C)cc2)C(OS(=O)(=O)c2ccc(C)cc2)C(COC(=O)c2ccccc2)OS(=O)(=O)c2ccc(C)cc2)cc1 (stereo not given) | > 100 | > 100 | > 100 | > 100 | – | > 100 | > 100 | > 100 | > 100 | – | – | – | – | – | – | – | – | – | –
COc1cc(OC)c(OC)cc1/C=C/c1cnnc2ccccc12 | > 10 | > 10 | > 10 | > 10 | > 10000 | > 10 | – | > 10 | > 10 | > 10 | – | – | – | – | – | – | – | – | –
Cc1ccc2nc3cc(C)c(=O)cc-3sc2c1 | – | > 100 | > 100 | > 100 | – | > 100 | > 100 | > 100 | > 100 | – | – | – | – | – | – | – | – | – | –
Cc1cccc(C)c1N1C(=O)C(=O)C(c2nc3ccccc3s2)/C(=N/NC(=O)c2ccccc2O)C1=O (stereo not given) | > 100 | > 89.4 | > 100 | > 100 | – | > 53.7 | 86.3 | > 100 | 68.2 | – | – | – | – | – | – | – | – | – | –
Cc1ccc(S(=O)(=O)c2ccc(C)cc2[N+](=O)[O-])cc1 | > 100 | > 100 | > 100 | > 100 | – | 76.8 | > 100 | > 100 | > 100 | – | – | – | – | – | – | – | – | – | –
CC(C(=O)c1ccccc1)C1(O)C(=O)Nc2ccc(Cl)cc21 (stereo not given) | > 100 | > 100 | > 100 | > 100 | – | – | – | > 100 | > 100 | – | – | – | – | – | – | – | – | – | –
COc1cc(NS(C)(=O)=O)ccc1NCc1c2ccccc2nc2ccccc12 | – | > 100 | > 100 | > 100 | – | – | 62.9 | > 100 | > 100 | – | – | – | – | – | – | – | – | – | –
CCOC(=O)C(Cc1ccccc1)NC(=O)c1[nH]cnc1/N=N/N(C)C (stereo not given) | > 100 | > 100 | > 100 | > 100 | – | > 100 | > 100 | > 100 | > 100 | – | – | – | – | – | – | – | – | – | –
C/C(CC(=O)Nc1ccccc1C)=N/NS(=O)(=O)c1ccc(C)cc1 | > 100 | > 100 | – | > 100 | – | > 100 | – | > 100 | > 100 | – | – | – | – | – | – | – | – | – | –
COc1ccc2c(c1OC)C(C(Cl)(Cl)Cl)N1CCc3cc4c(cc3C1=C2)OCO4 (stereo not given) | > 100 | 65.1 | > 100 | 20.3 | > 100000 | 15.4 | – | > 100 | 62.9 | 84.7 | – | – | – | – | – | – | – | – | –
COc1ccc2c(c1)NC1(O)c3ccccc3C(=O)C21O (stereo not given) | > 100 | > 100 | – | > 100 | – | > 100 | > 100 | > 100 | > 100 | – | – | – | – | – | – | – | – | – | –
O=S(=O)(N=NC=C1c2ccccc2N(O)c2ccccc21)c1ccc(Cl)cc1 | > 100 | > 100 | > 100 | > 100 | – | > 100 | – | > 100 | > 100 | – | – | – | – | – | – | – | – | – | –
CN(C)CCCC1(c2ccc(F)cc2)OCc2cc(-c3cc4ccccc4s3)ccc21 (stereo not given) | 2.92 | 3.02 | 3.13 | 3.45 | 2990 | 3.05 | – | 3.4 | 3.27 | 3.24 | 1530 | 1660 | 1790 | 1690 | 1740 | 1500 | 1690 | 1740 | 1800
Cc1ccc(S(=O)(=O)C2=c3nc4ccccc4cc3=C3C(=O)c4ccccc4C(=O)C32)cc1 (stereo not given) | > 100 | > 100 | > 100 | > 100 | – | > 100 | > 100 | > 100 | > 100 | – | – | – | – | – | – | – | – | – | –
C[C@]12CC[C@H]3[C@@H](CC4SC(N)=NC45C/C(=N/NC(N)=O)CC[C@]35C)[C@@H]1CCC2=O (stereo not given in full) | 6.83 | 3.19 | 2.86 | 4.02 | 2750 | 2.97 | – | 3.39 | 5.83 | 3.41 | 2100 | 1800 | 1750 | 1460 | 2010 | 1250 | 1570 | 1690 | 2400
C=CCC1(C(=O)OC(C)(C)C)C(OC)=C(C(=O)OC(C)(C)C)C2C1C(C(=O)OC(C)(C)C)=C(OC)C2(CC=C)C(=O)OC(C)(C)C (stereo not given) | – | > 100 | > 100 | > 100 | – | – | > 100 | > 100 | > 100 | – | – | – | – | – | – | – | – | – | –
C1CN(P2(N3CC3)=NP(N3CC3)(N3CC3)=NP(N3CC3)(N3CC3)=N2)CCO1 (stereo not given) | > 100 | > 100 | > 100 | > 100 | – | > 100 | > 47.4 | > 100 | > 100 | – | – | – | – | – | – | – | – | – | –
CCOC(=O)C1=C(C)N(NC(N)=O)C2(N)N(NC(N)=O)C(C)=C(C(=O)OCC)C12C(=O)OCC (stereo not given) | > 100 | > 100 | > 100 | > 100 | – | > 100 | > 100 | > 100 | > 100 | – | – | – | – | – | – | – | – | – | –
